Measured values published in patent US7091202B2, “4-arylspirocycloalkyl-2-aminopyrimidine carboxamide KCNQ potassium channel modulators” (Bristol-Myers Squibb Company, priority 2004, dated 2006).

target: T1, hQ23 (HEK-293 cell line stably transfected with one of the members of the KCNQ family) (Homo sapiens, UniProt O43525+O43526); test: Thallium flux assay for KCNQ channel blockers (FLIPR, BTC dye); type: cell-based; conditions: Table 2; thallium flux, HEK-293
T1 construct: expressed in transfected cells; host or cells: HEK-293, stably transfected
T1 sequence (O43526 whole entry): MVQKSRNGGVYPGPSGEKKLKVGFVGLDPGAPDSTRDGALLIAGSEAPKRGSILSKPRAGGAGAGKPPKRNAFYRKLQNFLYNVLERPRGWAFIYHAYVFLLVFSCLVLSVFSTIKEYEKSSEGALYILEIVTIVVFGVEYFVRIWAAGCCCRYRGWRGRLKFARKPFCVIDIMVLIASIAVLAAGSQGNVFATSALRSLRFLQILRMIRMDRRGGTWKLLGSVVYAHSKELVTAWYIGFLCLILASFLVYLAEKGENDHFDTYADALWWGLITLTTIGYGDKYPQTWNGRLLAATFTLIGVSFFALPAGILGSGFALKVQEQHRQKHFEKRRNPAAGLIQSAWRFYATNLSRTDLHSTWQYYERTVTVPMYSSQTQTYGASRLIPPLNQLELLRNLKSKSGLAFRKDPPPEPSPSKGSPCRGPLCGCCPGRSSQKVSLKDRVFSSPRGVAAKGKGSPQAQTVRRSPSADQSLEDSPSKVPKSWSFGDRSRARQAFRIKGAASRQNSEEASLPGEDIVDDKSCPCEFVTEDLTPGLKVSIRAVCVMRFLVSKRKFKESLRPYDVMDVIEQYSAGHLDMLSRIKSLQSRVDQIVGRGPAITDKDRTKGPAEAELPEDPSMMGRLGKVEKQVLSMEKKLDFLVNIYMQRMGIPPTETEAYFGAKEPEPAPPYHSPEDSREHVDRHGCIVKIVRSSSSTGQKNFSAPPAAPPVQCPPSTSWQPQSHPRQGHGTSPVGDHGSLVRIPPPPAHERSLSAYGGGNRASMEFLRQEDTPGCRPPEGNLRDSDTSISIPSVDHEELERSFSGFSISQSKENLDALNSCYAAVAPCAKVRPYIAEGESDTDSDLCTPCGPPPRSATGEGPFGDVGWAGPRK
T1 sequence (O43525 whole entry): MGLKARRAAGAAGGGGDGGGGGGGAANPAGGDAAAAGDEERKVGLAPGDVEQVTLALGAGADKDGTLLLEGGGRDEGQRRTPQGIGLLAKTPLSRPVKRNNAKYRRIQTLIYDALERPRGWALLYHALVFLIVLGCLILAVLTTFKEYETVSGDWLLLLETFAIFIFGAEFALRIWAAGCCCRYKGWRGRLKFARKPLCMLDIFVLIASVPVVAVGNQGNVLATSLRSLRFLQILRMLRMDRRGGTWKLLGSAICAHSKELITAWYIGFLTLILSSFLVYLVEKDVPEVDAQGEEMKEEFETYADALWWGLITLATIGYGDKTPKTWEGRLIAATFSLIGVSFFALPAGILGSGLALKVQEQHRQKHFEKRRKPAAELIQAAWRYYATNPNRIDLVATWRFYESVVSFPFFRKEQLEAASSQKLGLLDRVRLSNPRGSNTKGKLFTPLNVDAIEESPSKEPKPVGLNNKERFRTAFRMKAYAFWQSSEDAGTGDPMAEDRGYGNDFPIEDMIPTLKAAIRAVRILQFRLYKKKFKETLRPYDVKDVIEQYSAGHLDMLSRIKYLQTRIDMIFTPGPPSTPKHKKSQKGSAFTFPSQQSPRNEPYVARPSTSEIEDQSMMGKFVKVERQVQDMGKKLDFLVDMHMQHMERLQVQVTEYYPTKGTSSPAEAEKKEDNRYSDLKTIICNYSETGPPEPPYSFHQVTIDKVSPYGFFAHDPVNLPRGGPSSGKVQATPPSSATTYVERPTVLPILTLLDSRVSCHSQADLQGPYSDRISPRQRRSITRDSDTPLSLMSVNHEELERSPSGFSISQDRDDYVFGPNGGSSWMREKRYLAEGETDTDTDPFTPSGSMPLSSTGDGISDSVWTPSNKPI
Experimental: Thallium Flux Assay for KCNQ channel blockers. Approximately 20,000 cells/well of an HEK-293 cell line stably transfected with one of the members of the KCNQ family were plated into clear-bottom, black-walled, poly-D-lysine coated, 384 well assay plates in 20 μl/well of low chloride plating medium. Low chloride plating medium was composed of the following: sodium gluconate, 109 mM; potassium gluconate, 5.4 mM; hemi-calcium gluconate, 3.6 mM; magnesium sulfate, 0.8 mM; sodium bicarbonate, 26.2 mM; sodium phosphate monobasic, 1.2 mM; glutamine, 2 mM; glucose, 5 mM; HEPES (pH 7.3) 10 mM, 10× concentration of vitamins (Gibco/LifeTechnologies catalog #11120-052) and 1× concentration of amino acids (Gibco/LifeTechnologies catalog #11130-051).
Following overnight incubation in a 5% CO2 incubator at 37° C., the cells in the plates were loaded with 20 μl/well of a dye loading solution containing the acetomethoxy ester of the thallium-sensitive fluorescent dye BTC, BTC-AM (2 μM) and pluronic acid (0.02% w/v) in chloride free assay buffer. Chloride free assay buffer was composed of the following: sodium gluconate, 140 mM; potassium gluconate, 2.5 mM; hemi-calcium gluconate, 6 mM; hemi-magnesium gluconate, 2 mM; glucose, 5 mM; HEPES (pH 7.3), 10 mM.
Following incubation in the dye loading solution for from 45–90 min at room temperature, the dye loading solution was removed by aspiration and replaced with 40 μl/well of chloride free assay buffer.
Prior to addition to cell plates, test compound and standard compounds were dissolved in DMSO to 3 mM concentration. Compounds were then diluted from the 3 mM stock to 100-fold over the final assay concentration in DMSO. Finally, compounds in DMSO were diluted from 100-fold over the final assay concentration to 5-fold over the final assay concentration in chloride free assay buffer.
Ten μl/well of compounds at 5-fold over the final assay concentration were then added to the cell plates. This represents a 1:5 dilution, yielding the final test concentration. The wells used for test compounds were A1–P20. Wells A21–P22 contained a standard ‘blocker’ and a fully efficacious concentration (positive control). Wells A23–P24 contained chloride free assay buffer containing 1% DMSO (negative control).
Following addition of test compounds, the plates were loaded onto the Molecular Devices FLIPR. The 488 nm line of the argon laser was used to excite the BTC and the emission filter was a 540(+/−30) nm. Images were collected at 1 Hz. Ten seconds of baseline were collected and then the FLIPR was used to add 13 μl/well of a stimulus buffer composed of Tl2SO4, 25 mM; sodium gluconate, 30 mM; potassium sulfate, 50 mM; hemi-calcium gluconate, 6 mM; hemi-magnesium gluconate, 2 mM; glucose, 5 mM; HEPES (pH 7.3), 10 mM in chloride free assay buffer. Images were collected for an additional 60 seconds.
For data analysis, the amplitude of the average of the negative controls was subtracted from all wells. The amplitudes of the test compounds were then compared to the value of four standard deviations of the negative control wells. The lowest concentration of a test compound sufficient to generate a signal amplitude greater than or equal to four standard deviations from the amplitude of the negative controls was defined as the minimal active concentration.
For generating IC50 values, compounds were serially diluted in 1:3 volume increments to produce a 10 point concentration series. IC50 values were calculated by fitting the resulting amplitudes to a single-site logistic equation. IC50 was defined as the concentration of test compound required to yield 50% of the response of the positive control.

In order of falling EC50:
1. CC1CCN(c2ncc(C(=O)NC(C)c3ccc(F)cc3)c(C3(c4ccccc4)CC3)n2)CC1 (stereo not drawn) [Example 51, 5-pyrimidinecarboxamide, N-[1-(4-fluorophenyl)ethyl]-2-(4-methyl-1-piperidinyl)-4-(1-phenylcyclopropyl)-]  672 nM
2. CC1CCN(c2ncc(C(=O)N3CCc4ccccc4C3)c(C3(c4ccccc4)CC3)n2)CC1 [Example 26, isoquinoline, 1,2,3,4-tetrahydro-2-[[2-(4-methyl-1-piperidinyl)-4-(1-phenylcyclopropyl)-5-pyrimidinyl]carbonyl]-]  546 nM
3. CC1CCN(c2ncc(C(=O)NCc3cc(F)cc(C(F)(F)F)c3)c(C3(c4ccccc4)CC3)n2)CC1 [Example 48, 5-pyrimidinecarboxamide, N-[[3-fluoro-5-(trifluoromethyl)phenyl]methyl]-2-(4-methyl-1-piperidinyl)-4-(1-phenylcyclopropyl)-]  297 nM

same assay, conditions: hQ23 cells, thallium flux

In order of rising EC50:
1. CC1CCCN(c2ncc(C(=O)NCc3ccc(Cl)cc3Cl)c(C3(c4ccc(Cl)cc4)CCCC3)n2)C1 (stereo not drawn) [Example 180, 5-pyrimidinecarboxamide, 4-[1-(4-chlorophenyl)cyclopentyl]-N-[(2,4-dichlorophenyl)methyl]-2-(3-methyl-1-piperidinyl)-]  10 nM
2. CC1CCN(c2ncc(C(=O)NCc3ccc4c(c3)OCO4)c(C3(c4ccccc4)CCCC3)n2)CC1 [Example 93, 5-pyrimidinecarboxamide, N-(1,3-benzodioxol-5-ylmethyl)-2-(4-methyl-1-piperidinyl)-4-(1-phenylcyclopentyl)-]  37 nM
3. 5-pyrimidinecarboxamide, 4-[1-(4-fluorophenyl)cyclopentyl]-N,N-bis(1-methylethyl)-2-(3-methyl-1-piperidinyl)- [Example 224]  39 nM
4. O=C(NCc1ccc2c(c1)OCO2)c1cnc(NC2CCCC2)nc1C1(c2ccc(Cl)cc2)CCCC1 [Example 156, 5-pyrimidinecarboxamide, N-(1,3-benzodioxol-5-ylmethyl)-4-[1-(4-chlorophenyl)cyclopentyl]-2-(cyclopentylamino)-]  70 nM
5. CC1CCC(Nc2ncc(C(=O)NCc3ccc4c(c3)OCO4)c(C3(c4ccc(Cl)cc4)CCCC3)n2)CC1 (stereo not drawn) [Example 151, 5-pyrimidinecarboxamide, N-(1,3-benzodioxol-5-ylmethyl)-4-[1-(4-chlorophenyl)cyclopentyl]-2-[(4-methylcyclohexyl)amino]-]  119 nM
6. O=C(NCc1cc(F)cc(C(F)(F)F)c1)c1cnc(N2CCCC2)nc1C1(c2ccccc2)CCCC1 [Example 124, 5-pyrimidinecarboxamide, N-[[3-fluoro-5-(trifluoromethyl)phenyl]methyl]-4-(1-phenylcyclopentyl)-2-(1-pyrrolidinyl)-]  240 nM
7. O=C(NCc1ccc(F)cc1F)c1cnc(NC2CCCC2)nc1C1(c2ccc(Cl)cc2)CCCC1 [Example 189, 5-pyrimidinecarboxamide, 4-[1-(4-chlorophenyl)cyclopentyl]-2-(cyclopentylamino)-N-[(2,4-difluorophenyl)methyl]-]  340 nM
8. CC1CCC(Nc2ncc(C(=O)N3CCc4ccccc4C3)c(C3(c4ccc(F)cc4)CCCC3)n2)CC1 (stereo not drawn) [Example 210, isoquinoline, 2-[[4-[1-(4-fluorophenyl)cyclopentyl]-2-[(4-methylcyclohexyl)amino]-5-pyrimidinyl]carbonyl]-1,2,3,4-tetrahydro-]  375 nM
9. CCN(C)C(=O)c1cnc(NC2CCC(C)CC2)nc1C1(c2ccc(F)cc2)CCCC1 (stereo not drawn) [Example 225, 5-pyrimidinecarboxamide, N-ethyl-4-[1-(4-fluorophenyl)cyclopentyl]-N-methyl-2-[(4-methylcyclohexyl)amino]-]  452 nM
10. CC(NC(=O)c1cnc(N2CCN(C)CC2)nc1C1(c2ccc(Cl)cc2)CCCC1)c1cccc2ccccc12 (stereo not drawn) [Example 159, 5-pyrimidinecarboxamide, 4-[1-(4-chlorophenyl)cyclopentyl]-2-(4-methyl-1-piperazinyl)-N-[1-(1-naphthalenyl)ethyl]-]  643 nM
11. O=C(NCc1ccc2c(c1)OCO2)c1cnc(NC2CC2)nc1C1(c2ccc(Cl)cc2)CCCC1 [Example 150, 5-pyrimidinecarboxamide, N-(1,3-benzodioxol-5-ylmethyl)-4-[1-(4-chlorophenyl)cyclopentyl]-2-(cyclopropylamino)-]  717 nM
12. CN1CCN(c2ncc(C(=O)NCc3ccc(Cl)c(Cl)c3)c(C3(c4ccc(Cl)cc4)CCCC3)n2)CC1 [Example 173, 5-pyrimidinecarboxamide, 4-[1-(4-chlorophenyl)cyclopentyl]-N-[(3,4-dichlorophenyl)methyl]-2-(4-methyl-1-piperazinyl)-]  820 nM
13. CCC(C)Nc1ncc(C(=O)N(CC)C2CCCCC2)c(C2(c3ccc(F)cc3)CCCC2)n1 (stereo not drawn) [Example 216, 5-pyrimidinecarboxamide, N-cyclohexyl-N-ethyl-4-[1-(4-fluorophenyl)cyclopentyl]-2-[(1-methylpropyl)amino]-]  821 nM
14. CCC(C)Nc1ncc(C(=O)N(CC)Cc2ccccc2)c(C2(c3ccccc3)CCCC2)n1 (stereo not drawn) [Example 87, 5-pyrimidinecarboxamide, N-ethyl-2-[(1-methylpropyl)amino]-4-(1-phenylcyclopentyl)-N-(phenylmethyl)-]  851 nM

same assay, conditions: hQ23 cells, thallium flux assay

In order of rising EC50:
1. CC1CCN(c2ncc(C(=O)NC(C)c3cccc4ccccc34)c(C3(c4ccc(F)cc4)CCCC3)n2)CC1 (stereo not drawn) [Example 245, 5-pyrimidinecarboxamide, 4-[1-(4-fluorophenyl)cyclopentyl]-2-(4-methyl-1-piperidinyl)-N-[1-(1-naphthalenyl)ethyl]-]  10 nM
2. CCC(C)Nc1ncc(C(=O)NC(C)c2cccc3ccccc23)c(C2(c3ccc(F)cc3)CCCC2)n1 (stereo not drawn) [Example 246, 5-pyrimidinecarboxamide, 4-[1-(4-fluorophenyl)cyclopentyl]-2-[(1-methylpropyl)amino]-N-[1-(1-naphthalenyl)ethyl]-]  177 nM
3. CC1CCC(Nc2ncc(C(=O)NCc3ccc4c(c3)OCO4)c(C3(c4ccc(F)cc4)CCCC3)n2)CC1 (stereo not drawn) [Example 234, 5-pyrimidinecarboxamide, N-(1,3-benzodioxol-5-ylmethyl)-4-[1-(4-fluorophenyl)cyclopentyl]-2-[(4-methylcyclohexyl)amino]-]  235 nM
4. CC(NC(=O)c1cnc(NC2CCCC2)nc1C1(c2ccc(F)cc2)CCCC1)c1ccc(F)cc1 (stereo not drawn) [Example 287, 5-pyrimidinecarboxamide, 2-(cyclopentylamino)-4-[1-(4-fluorophenyl)cyclopentyl]-N-[1-(4-fluorophenyl)ethyl]-]  573 nM
5. CN1CCN(c2ncc(C(=O)NCc3ccc(F)cc3F)c(C3(c4ccc(F)cc4)CCCC3)n2)CC1 [Example 268, 5-pyrimidinecarboxamide, N-[(2,4-difluorophenyl)methyl]-4-[1-(4-fluorophenyl)cyclopentyl]-2-(4-methyl-1-piperazinyl)-]  634 nM
6. CCC(C)Nc1ncc(C(=O)NC(C)c2ccc(F)cc2)c(C2(c3ccc(F)cc3)CCCC2)n1 (stereo not drawn) [Example 286, 5-pyrimidinecarboxamide, 4-[1-(4-fluorophenyl)cyclopentyl]-N-[1-(4-fluorophenyl)ethyl]-2-[(1-methylpropyl)amino]-]  852 nM
7. CN(C)CCNc1ncc(C(=O)NCc2ccc(F)cc2F)c(C2(c3ccc(F)cc3)CCCC2)n1 [Example 272, 5-pyrimidinecarboxamide, N-[(2,4-difluorophenyl)methyl]-2-[[2-(dimethylamino)ethyl]amino]-4-[1-(4-fluorophenyl)cyclopentyl]-]  967 nM
